Values quoted from earlier work, collected in US7494643B2, “Method and topical composition for the treatment of hyperpigmented skin” (priority 2003, dated 2009).

Experiments:
melanocytes = details: cited from earlier work
cultured pigment cells = details: cited from earlier work
black goldfish = details: ingested by the fish; cited from earlier work
[1] = test system: tyrosinase isolated from black goldfish and standard goldfish; details: cited from earlier work
mushroom-tyrosinases = details: competitive inhibition; cited from earlier work
human-tyrosinase = molecular target: T1, human-tyrosinase (Homo sapiens, UniProt P14679); details: competitive inhibition; cited from earlier work
T1 sequence (P14679 19-529): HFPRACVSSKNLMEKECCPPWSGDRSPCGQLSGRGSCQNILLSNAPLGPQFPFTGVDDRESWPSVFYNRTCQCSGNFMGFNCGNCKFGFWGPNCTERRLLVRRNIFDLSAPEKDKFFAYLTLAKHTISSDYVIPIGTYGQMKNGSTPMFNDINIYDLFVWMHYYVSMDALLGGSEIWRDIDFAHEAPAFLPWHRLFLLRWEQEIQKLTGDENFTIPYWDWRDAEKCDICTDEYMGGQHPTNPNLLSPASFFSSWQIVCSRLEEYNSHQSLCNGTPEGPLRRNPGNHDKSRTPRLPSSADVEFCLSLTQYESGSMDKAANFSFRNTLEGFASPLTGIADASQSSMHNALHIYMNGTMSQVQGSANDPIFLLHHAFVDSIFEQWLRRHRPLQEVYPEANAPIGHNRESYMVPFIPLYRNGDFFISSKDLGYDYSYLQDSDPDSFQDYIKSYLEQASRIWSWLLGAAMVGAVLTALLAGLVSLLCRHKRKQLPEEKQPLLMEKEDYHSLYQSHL

HIV = details: NCI primary screen; cited from earlier work

Compound: Oc1ccc(O)cc1 [hydroquinone]
- cytotoxicity (destroys the cellular walls of the melanocytes) (melanocytes): cytotoxic

Compound: O=c1cc(CO)occ1O [Kojic acid]
- suppression of melanogenesis (cultured pigment cells): suppress melanogenesis
- colour of black goldfish after ingestion (black goldfish): almost yellow-brown
- inhibition of tyrosinase [1]: inhibit tyrosinase

Compound: OC[C@H]1O[C@@H](Oc2ccc(O)cc2)[C@H](O)[C@@H](O)[C@@H]1O [Arbutin]
- inhibition of enzyme activity of mushroom tyrosinase (mushroom-tyrosinases): inhibits enzyme activity
- inhibition of enzyme activity of human tyrosinase (human-tyrosinase): inhibits enzyme activity

Compound: Vismiaphenone D
- HIV-inhibitory activity (HIV): HIV-inhibitory activity
